Assay type in all cases: cell-based
Series [1] concerns Shh-mediated pathway activation (Gli-reporter in C3H10T1/2 cells). The series is described as follows: Gli-Luc Reporter Assay for Hh Pathway Inhibition. The note with it: C3H 10T1/2, recombinant mouse Shh protein 2 μg/mL, 48 hours, firefly luciferase normalized to Renilla, read-out: EC50 to block Shh-mediated pathway activation. The method, then:
Gli-Luc Reporter Assay for Hh Pathway Inhibition
Mouse embryonic mesoderm fibroblasts C3H10T1/2 cells (obtained from American Type Culture Collection, ATCC, Manassas, Va.) are cultured in MEM-α medium (Gibco/Invitrogen, Carlsbad, Calif.) supplemented with 10% heat inactivated FBS (Gibco/Invitrogen, Carlsbad, Calif.), 50 unit/mL penicillin and 50 μg/mL of streptomycin (Gibco/Invitrogen, Carlsbad, Calif.) at 37° C. with 5% CO2 in air atmosphere. C3H10T1/2 cells in a 10 cm dish are co-transfected with 8 μg of Gli-reporter plasmid and 2 μg of Renilla luciferase control reporter (Promega, Madison, Wis.) with 30 μL of FuGENE6 (Roche Diagnostics, Indianapolis, Ind.) following the manufacturer's protocol. After 12 hours, cells are trypsinized and replated into a 96-well plate with MEM-α medium supplemented with 2% FBS, and treated with recombinant mouse Shh protein (expressed in E. coli, 2 μg/mL) and different concentrations of a compound of the invention. After 48 hours, the firefly luciferase and Renilla luciferase activities are assayed with the Dual-Glo™ Luciferase Assay System (Promega, Madison, Wis.). Firefly luciferase activity is normalized to Renilla luciferase activity. The EC50 is measured when the effect of the compound reduces the luminescence signal by 50%.
On the technique in general: Reporter assays use an easily measured gene product as a stand-in for the process of interest.

Series [2] concerns Daoy cells (medulloblastoma cell line). The series is described as follows: Cyto-toxicity Assay (Cell Titer-Glo cell viability), Daoy cells. The note with it: Homo sapiens, 48 h, 2 days, luminescent cell viability, read-out: EC50 against the proliferation of Daoy cells. The method, then:
(§1) A cytotoxicity assay is performed to compare the effects of a compound of the invention on medulloblastoma cells (Daoy cells), basal cell carcinoma cells (TE354.T cells) and control cells (human normal fibroblast) according to the following procedure:
Daoy cells (medulloblastoma cell line) are purchased from ATCC, and cultured in Minimum essential medium (Eagle) with 2 mM L-glutamine and Earle's BSS adjusted to contain 1.5 g/L sodium bicarbonate, 0.1 mM non-essential amino acids, and 1.0 mM sodium pyruvate and 10% FBS at 37° C. with 5% CO2 in an air atmosphere.
(§2) Each of the above cell lines are independently seeded into 96-well plates and cultured to a density of 5,000-10,000 cells/well. A compound of the invention, at different concentrations, is added into the cell cultures. After 2 days, the cell viability is evaluated with Cell Titer-Glo Luminescent Cell Viability Assay Kit (Promega) following the manufacturer's protocol. The cell viability is directly measured by luminescent signaling and EC50s are measured when the signal is inhibited 50%.
(In general: ATP-based viability assays read luminescence as a measure of living cells.)

The subject of series [3] is normal human dermal fibroblast cells. Description: Cyto-toxicity Assay (Cell Titer-Glo cell viability), control cells. The note with it: 2 days, luminescent cell viability. The method, then:
as §1
Normal human dermal fibroblast cells (Clonetics) are cultured in Fibroblast Growth Medium (Clonetics).
as §2

These results are taken from patent US20090209573A1, “COMPOUNDS AND COMPOSITIONS AS HEDGEHOG PATHWAY MODULATORS” (IRM LLC, priority 2004, published 2009).

Take `CCOc1ccc(Nc2nc(-c3c(C)nc4ccccn34)cs2)cc1` [Example 1, (4-Ethoxy-phenyl)-[4-(2-methyl-imidazo[1,2-a]pyridin-3-yl)-thiazol-2-yl]-amine]: the EC50 in series [1] and in series [2] was 30 nM throughout. Besides, the “toxic effect on normal human dermal fibroblast cells (control)” value in series [3] is listed as “no toxic effect”.
